In patent US12037344B2, “NLRP3 modulators” (INNATE TUMOR IMMUNITY, INC., priority 2018, dated 2024):
Where two headings read alike, the source gives them in different places.

Assays:
THP-1 cells = experiment: Measurement of IL-1β production, hTRF protocol (second alternative procedure), THP-1 cells; format: cell-based, human; conditions: read-out: NLRP3 hILIB EC50
Outline: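 THP-1 cells differentiated overnight with 50 ng/ml PMA, then plated at 50,000 cells/well in RPMI with 2% FBS onto serial compound dilutions (top final concentration 10 μM) for 2 hours at 37° C. Supernatant IL-1β measured by hTRF (antibodies at 1:40, overnight at 4° C), read at 665/615 nm against a standard curve.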

TLR8 = molecular target: T1, TLR8 (Homo sapiens, UniProt Q9NR97); experiment: In vitro human TLR8 binding reporter assay (HEK-Blue, NF-kB/AP1-inducible SEAP); format: cell-based; conditions: read-out: TLR8 Agonist EC50
T1 construct: human HEK-Blue cells co-expressing a TLR7 or TLR8 gene
T1 sequence (Q9NR97 27-1041): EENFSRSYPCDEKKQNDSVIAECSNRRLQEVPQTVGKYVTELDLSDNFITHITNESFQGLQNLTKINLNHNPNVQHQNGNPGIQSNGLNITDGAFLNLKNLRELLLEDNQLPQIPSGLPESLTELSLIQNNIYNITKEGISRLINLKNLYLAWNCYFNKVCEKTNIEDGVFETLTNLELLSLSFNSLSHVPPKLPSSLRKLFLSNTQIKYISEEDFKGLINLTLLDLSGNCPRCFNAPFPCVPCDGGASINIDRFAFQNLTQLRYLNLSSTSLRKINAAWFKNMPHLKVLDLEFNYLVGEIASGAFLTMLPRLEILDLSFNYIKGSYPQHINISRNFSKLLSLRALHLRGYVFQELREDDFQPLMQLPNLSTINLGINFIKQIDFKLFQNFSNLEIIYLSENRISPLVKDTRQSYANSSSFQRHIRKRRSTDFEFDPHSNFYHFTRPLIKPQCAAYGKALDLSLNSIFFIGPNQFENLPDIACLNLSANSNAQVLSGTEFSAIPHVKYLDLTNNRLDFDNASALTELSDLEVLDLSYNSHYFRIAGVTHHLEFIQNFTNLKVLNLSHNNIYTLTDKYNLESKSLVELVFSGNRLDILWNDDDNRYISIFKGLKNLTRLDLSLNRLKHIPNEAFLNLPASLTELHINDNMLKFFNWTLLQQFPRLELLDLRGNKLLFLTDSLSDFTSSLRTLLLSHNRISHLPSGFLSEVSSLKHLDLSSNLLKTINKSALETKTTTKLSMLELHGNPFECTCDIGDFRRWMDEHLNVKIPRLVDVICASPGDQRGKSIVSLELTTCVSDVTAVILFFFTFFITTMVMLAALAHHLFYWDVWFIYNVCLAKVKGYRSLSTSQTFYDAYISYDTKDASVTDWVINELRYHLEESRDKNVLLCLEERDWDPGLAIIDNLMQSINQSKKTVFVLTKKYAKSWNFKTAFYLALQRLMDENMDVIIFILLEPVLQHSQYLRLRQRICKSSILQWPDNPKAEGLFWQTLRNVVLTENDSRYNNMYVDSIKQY
Outline: (§1)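 Cells are seeded and grown for 24 h. Compounds or DMSO are then added and incubated 18 h at 37 °C. Quanti-Blue is added, and SEAP is read after thirty minutes. EC50 values are normalized, with RLU from 50 μM reference standard setting 100% Ymax.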

TLR7 = molecular target: T2, TLR7 (Homo sapiens, UniProt Q9NYK1); experiment: In vitro human TLR7 binding reporter assay (HEK-Blue, NF-kB/AP1-inducible SEAP); format: cell-based; conditions: read-out: TLR7 Agonist EC50
T2 construct: human HEK-Blue cells co-expressing a TLR7 or TLR8 gene
T2 sequence (Q9NYK1 27-1049): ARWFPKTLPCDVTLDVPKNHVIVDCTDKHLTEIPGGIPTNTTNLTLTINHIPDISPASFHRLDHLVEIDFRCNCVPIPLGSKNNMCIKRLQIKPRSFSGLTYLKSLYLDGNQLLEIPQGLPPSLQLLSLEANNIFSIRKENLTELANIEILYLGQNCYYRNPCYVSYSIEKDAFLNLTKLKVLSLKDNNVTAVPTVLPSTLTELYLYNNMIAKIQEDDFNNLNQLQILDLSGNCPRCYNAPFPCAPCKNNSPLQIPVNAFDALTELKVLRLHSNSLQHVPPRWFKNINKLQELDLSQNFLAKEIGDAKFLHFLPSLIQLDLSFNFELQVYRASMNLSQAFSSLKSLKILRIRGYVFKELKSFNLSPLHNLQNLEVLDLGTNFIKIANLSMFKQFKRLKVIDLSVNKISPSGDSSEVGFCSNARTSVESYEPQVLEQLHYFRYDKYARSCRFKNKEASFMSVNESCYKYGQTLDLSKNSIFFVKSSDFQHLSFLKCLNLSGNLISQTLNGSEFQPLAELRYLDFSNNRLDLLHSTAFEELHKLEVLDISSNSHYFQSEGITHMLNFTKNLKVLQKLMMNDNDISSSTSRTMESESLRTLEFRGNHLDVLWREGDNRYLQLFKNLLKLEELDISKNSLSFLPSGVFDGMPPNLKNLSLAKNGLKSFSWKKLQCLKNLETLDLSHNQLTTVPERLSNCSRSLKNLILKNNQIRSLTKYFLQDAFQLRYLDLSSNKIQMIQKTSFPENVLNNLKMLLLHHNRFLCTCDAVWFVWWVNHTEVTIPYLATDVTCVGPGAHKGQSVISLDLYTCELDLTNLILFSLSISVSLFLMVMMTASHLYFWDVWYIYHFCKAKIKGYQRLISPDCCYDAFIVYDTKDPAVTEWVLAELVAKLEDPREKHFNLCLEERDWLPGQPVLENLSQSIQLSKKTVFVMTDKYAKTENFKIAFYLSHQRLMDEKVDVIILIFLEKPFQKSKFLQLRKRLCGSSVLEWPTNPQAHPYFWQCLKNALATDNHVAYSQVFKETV
Outline: as §1

[1] = Homo sapiens, THP-1, IL-1β production, human
[2] = Homo sapiens, THP-1, IL-1β production, human cells

| Structure (SMILES) | EC50 (THP-1 cells; [1]) [µM] | EC50 (TLR8; activity range class) [µM] | EC50 (TLR7; activity range class) [µM] | EC50 (THP-1 cells; [2]) [µM] | EC50 (TLR8; activity range) [µM] | EC50 (TLR7; activity range) [µM] | EC50 (THP-1 cells; IL-1β production, human) [µM] |
| --- | --- | --- | --- | --- | --- | --- | --- |
| Cn1cnc(C(=O)NCCn2cc3c(n2)c(N)nc2cc(-c4cc[nH]n4)ccc23)c1 [Example 87] | 1.03 | > 100 | > 100 | – | – | – | – |
| COC[C@H](O)Cn1cc2c(N)nc3cc(-c4cc[nH]n4)ccc3c2n1 [Example 372] | 0.88 | > 100 | > 100 | – | – | – | – |
| Nc1nc2cc(-c3cc[nH]n3)ccc2c2cn(CC(=O)Nc3ccccc3F)nc12 [Example 164] | 0.25 | > 100 | > 100 | – | – | – | – |
| Nc1nc2cc(-c3cc[nH]n3)ccc2c2nn(CCc3c[nH]cn3)cc12 [Example 361] | 0.19 | > 100 | > 100 | – | – | – | – |
| CCNC(=O)CCn1cc2c(N)nc3cc(-c4cc[nH]n4)ccc3c2n1 [Example 517] | – | – | – | 1.72 | > 100 | > 100 | – |
| CS(=O)(=O)CCCn1ncc2c(N)nc3cc(-c4cc[nH]n4)ccc3c21 [Example 212] | 4.37 | > 100 | > 100 | – | – | – | – |
| CC(C)(Cn1cc2c(N)nc3cc(-c4ccn[nH]4)ccc3c2n1)C(=O)NCCO [Example 594] | – | – | – | 7.94 | > 100 | > 100 | – |
| CCOCC(=O)NC(C)Cn1cc2c(N)nc3cc(-c4ccn[nH]4)ccc3c2n1 (stereo not drawn) [Example 298] | 4.32 | > 100 | > 100 | – | – | – | – |
| Nc1nc2cc(-n3cccn3)ccc2c2cn(CCN3CCCC3=O)nc12 [Example 11] | 2.09 | > 100 | 20 to 100 | – | – | – | – |
| Nc1nc2cc(-c3cc[nH]n3)ccc2c2cn(CCN3Cc4cc(Cl)ccc4C3=O)nc12 [Example 104, 2-{2-[4-amino-7-(1H-pyrazol-3-yl)-2H-pyrazolo[3,4-c]quinolin-2-yl]ethyl}-5-chloro-2,3-dihydro-1H-isoindol-1-one] | 0.13 | 1 to 20 | 20 to 100 | – | – | – | – |
| Cc1nc(Cn2cc3c(N)nc4cc(-c5cc[nH]n5)ccc4c3n2)no1 [Example 355] | 2.57 | > 100 | > 100 | – | – | – | – |
| Nc1nc2cc(-c3cc[nH]n3)ccc2c2cn(CCNC(=O)c3cnc4ccccn4c3=O)nc12 [Example 98] | 1.59 | > 100 | > 100 | – | – | – | – |
| COC(C)Cn1cc2c(N)nc3cc(-c4cc[nH]n4)ccc3c2n1 (single isomer, unassigned) [Example 347] | – | > 100 | > 100 | – | – | – | 0.3 |
| CC(C)S(=O)(=O)NCCc1cc2c(N)nc3cc(-c4cc[nH]n4)ccc3c2[nH]1 [Example 483] | – | – | – | 1.1 | > 100 | > 100 | – |
| Nc1nc2cc(-c3cc[nH]n3)ccc2c2nn(CCN3CCCC3=O)cc12 [Example 383] | 1.38 | > 100 | > 100 | – | – | – | – |
| Nc1nc2cc(-c3cc[nH]n3)ccc2c2[nH]c(CCNC(=O)c3cccc(O)n3)cc12 [Example 519] | – | – | – | 2.07 | > 100 | > 100 | – |
| Nc1nc2cc(-c3cc[nH]n3)ccc2c2cn(CCc3c[nH]cn3)nc12 [Example 175] | 0.29 | > 100 | > 100 | – | – | – | – |
| CNC(=O)C1(Cn2cc3c(N)nc4cc(-c5ccn[nH]5)ccc4c3n2)CC1 [Example 608] | – | – | – | 0.7 | > 100 | > 100 | – |

| Structure (SMILES) | EC50 (THP-1 cells; [1]) [µM] | EC50 (TLR8; activity range class) [µM] | EC50 (TLR7; activity range class) [µM] | EC50 (THP-1 cells; [2]) [µM] | EC50 (TLR8; activity range) [µM] | EC50 (TLR7; activity range) [µM] | EC50 (THP-1 cells; IL-1β production, human) [µM] |
| --- | --- | --- | --- | --- | --- | --- | --- |
| COCCn1cc2c(N)nc3cc(-c4cc[nH]n4)c(F)cc3c2n1 [Example 406] | – | – | – | 0.45 | > 100 | > 100 | – |
| Nc1nc2cc(-c3ccn[nH]3)ccc2c2nn(CC3(C(=O)N4CCCC4)CC3)cc12 [Example 607] | – | – | – | 13.4 | > 100 | > 100 | – |
| CS(=O)(=O)NCCc1cc2c(N)nc3cc(-c4cc[nH]n4)ccc3c2[nH]1 [Example 481] | – | – | – | 0.38 | > 100 | > 100 | – |
| CC(CC(=O)N(C)C)n1cc2c(N)nc3cc(-c4cc[nH]n4)ccc3c2n1 (stereo not drawn) [Example 617] | – | – | – | 3.88 | > 100 | > 100 | – |
| Nc1nc2cc(-c3cccs3)ccc2c2cn(CCNC(=O)c3ccccn3)nc12 [Example 131] | 0.61 | > 100 | > 100 | – | – | – | – |
| CC(C(=O)NC(C)(C)CO)n1cc2c(N)nc3cc(-c4ccn[nH]4)ccc3c2n1 (stereo not drawn) [Example 574] | – | – | – | 14 | > 100 | > 100 | – |
| Nc1nc2cc(-c3cc[nH]n3)ccc2c2nn(CCC(=O)NCCO)cc12 [Example 511] | – | – | – | 4.62 | > 100 | > 100 | – |
| Nc1nc2cc(-c3ccn[nH]3)ccc2c2nn(CCNC(=O)c3ccc(F)cn3)nc12 [Example 160] | 0.7 | > 100 | > 100 | – | – | – | – |
| Nc1nc2cc(-c3cc[nH]n3)ccc2c2cn(CCCNC(=O)c3ccc(F)cn3)nc12 [Example 125] | 8.34 | > 100 | > 100 | – | – | – | – |
| NC(=O)CCn1cc2c(n1)c(N)nc1cc(-c3ccn[nH]3)ccc12 [Example 189] | 0.59 | > 100 | > 100 | – | – | – | – |
| COCC(O)Cn1cc2c(N)nc3cc(-c4cc[nH]n4)ccc3c2n1 (stereo not drawn) [Example 307] | 0.43 | > 100 | > 100 | – | – | – | – |
| CO[C@H](CO)Cn1cc2c(N)nc3cc(-c4cc[nH]n4)ccc3c2n1 [Example 489] | – | – | – | 0.77 | > 100 | > 100 | – |
| Nc1nc2cc(-c3cc[nH]n3)ccc2c2nn(C3COCC3O)cc12 (single isomer, unassigned) [Example 324] | 1.57 | > 100 | > 100 | – | – | – | – |
| CN1CCN(C(=O)CCn2cc3c(N)nc4cc(-c5cc[nH]n5)ccc4c3n2)CC1 [Example 505] | – | – | – | 29.6 | > 100 | > 100 | – |
| Nc1nc2cc(-c3cc[nH]n3)ccc2c2cn(CCNC(=O)c3cnco3)nc12 [Example 84] | 1.79 | > 100 | > 100 | – | – | – | – |
| Nc1nc2cc(-c3cc[nH]n3)ccc2c2cn(CCNC(=O)c3cccc(C(F)(F)F)n3)nc12 [Example 90] | 0.08 | 20 to 100 | 20 to 100 | – | – | – | – |
| COc1cccc(C(=O)NCCn2cc3c(n2)c(N)nc2cc(-c4cc[nH]n4)ccc23)c1 [Example 79] | 1.59 | > 100 | > 100 | – | – | – | – |
